“And” between values parts separate entries of the source, which are not always exact repeats. Identical values can stand only once. “Also recorded” adds a separate entry of the source.
Test system: human leutecyte strain cell (RPMI-8402)
Assay: Extinction effect of compatible administration of l-OHP and a compatible agent on tumor cells (compatible efficiency OE)
Assay type: cell-based
Details: for Compatible Effects of l-OHP and Compatible Agent, Simultaneous Administration: both added day 1
Protocol: In the evaluation of the extinction effect of the tumor cells of the respective combinations, a pure extinction effect produced by the compatible administration of the compatible agent and the l-OHP is calculated by subtracting an extinction effect of a control (no carcinostatic substance is employed).
The compatibly administration effect is calculated by employing an Equation (1) described later. When the value (%) calculated by this Equation is between 85 and 115%, the compatible administration effect is evaluated to be an additive effect. When the value is below 85%, it is evaluated to be below the additive effect. When the value is over 115%, it is evaluated to be a synergistic effect, ±15% is a reliability limit or a measurement error.
A target tumor cell was a human leutecyte strain cell (RPMI-8402 of Gibuko K.K.). To these cells was added blood serum of a cow embryo (15%, Gibuko K.K.) to prepare a cell floating liquid of which the number of the cells was 10^6/ml in a cultivation bottle (tradename; Sumiron of Sumitomo Bakelite o., Ltd.) having a volume of 6 ml. A plenty of the cultivation bottles having the cell floating liquid therein were prepared, and the following experiments were conducted while selecting one kind of a compatible agent among cisplatin, 5-FU, irinotecane, adriamycin, etoposide, mitomycin, mitoxantrone, bleomycin, vincristin and vindecin. The time schedules of the controls (no addition of medicines, addition of only the l-OHP and addition of only a compatible agent, and specified in the below items (1) to (4)) and of the compatible administration of the compatible agent and the l-OHP are shown in FIG. 10.
(1) No medicine was added (control).
(2) Only the l-OHP was added at a second day.
(3) A large amount of compatible agents were added at a first day ([…] of the cisplatin, 10 μg/ml of the 5-FU, 0.05 μg/ml of the adriamycin and 1 μg/ml of the etoposide, and for the comparison purpose, 0.05 μg/ml of the vincristin and 0.06 μg/ml of the vindecin). The adding amount of the irinotecano was fixed to 10 μg/ml, and the addition amount of the l-OHP was 5 μg/ml.
(4) A small amount of compatible agents were added at a first day (0.5 μg/ml of the cisplatin, 5 μg/ml of the 5-FU, 0.01 μg/ml of the adriamycin and 0.5 μg/ml of the etoposide, and for the comparison purpose, 0.01 μg/ml of the vincristin and 0.01 μg/ml of the vindecin). The adding amount of the irinotecane was fixed to 10 μg/ml, and the addition amount of the l-OHP was 1 μg/ml.
(5) The l-OHP and a large amount (the same as that of the above item (3) and so forth in the following items) of the compatible agents were simultaneously added at a first day.
(6) The l-OHP and a small amount (the same as that of the above item (4) and so forth in the following items) of the compatible agents were simultaneously added at a first day.
(7) The l-OHP was added at a first day and a large amount of the compatible agents were added at a second day.
(8) The l-OHP was added at a first day and a small amount of the compatible agents were added at a second day.
(9) The l-OHP was added at a first day and a large amount of the compatible agents were added at a third day.
(10) The l-OHP was added at a first day and a small amount of the compatible agents were added at a third day.
(11) The l-OHP was added at a first day and a large amount of the compatible agents were added at a fourth day.
(12) The l-OHP was added at a first day and a small amount of the compatible agents were added at a fourth day.
(13) A large amount of the compatible agents were added at a first day and the l-OHP was added at a second day.
(14) A small amount of the compatible agents were added at a first day and the l-OHP was added at a second day.
(15) A large amount of the compatible agents were added at a first day and the l-OHP was added at a third day.
(16) A small amount of the compatible agents were added at a first day and the l-OHP was added at a third day.

[1] = larger dosage of compatible agent (μg/ml: cisplatin 1, 5-FU 10, irinotecane 10, adriamycin 0.05, vincristin 0.05, vindecin 0.05, etoposide 1, bleomycin 10, mitoxantrone 0.1, mitomycine 1), l-OHP 1 μg/ml (5 μg/ml with irinotecane) added day 1
[2] = larger dosage of compatible agent (μg/ml: cisplatin 1, 5-FU 10, irinotecane 10, adriamycin 0.05, vincristin 0.05, vindecin 0.05, etoposide 1, bleomycin 10, mitoxantrone 0.1, mitomycine 1), l-OHP 1 μg/ml (5 μg/ml with irinotecane)
[3] = larger dosage of compatible agent added day 1 (μg/ml: cisplatin 1, 5-FU 10, irinotecane 10, adriamycin 0.05, vincristin 0.05, vindecin 0.05, etoposide 1, bleomycin 10, mitoxantrone 0.1, mitomycine 1), l-OHP 1 μg/ml (5 μg/ml with irinotecane)
[4] = smaller dosage of compatible agent (μg/ml: cisplatin 0.5, 5-FU 5, irinotecane 10, adriamycin 0.01, vincristin 0.01, vindecin 0.01, etoposide 0.5, bleomycin 1, mitoxantrone 0.05, mitomycine 0.5), l-OHP 1 μg/ml added day 1
[5] = smaller dosage of compatible agent (μg/ml: cisplatin 0.5, 5-FU 5, irinotecane 10, adriamycin 0.01, vincristin 0.01, vindecin 0.01, etoposide 0.5, bleomycin 1, mitoxantrone 0.05, mitomycine 0.5), l-OHP 1 μg/ml
[6] = smaller dosage of compatible agent added day 1 (μg/ml: cisplatin 0.5, 5-FU 5, irinotecane 10, adriamycin 0.01, vincristin 0.01, vindecin 0.01, etoposide 0.5, bleomycin 1, mitoxantrone 0.05, mitomycine 0.5), l-OHP 1 μg/ml

| Structure (SMILES) | compatible administration effect with l-OHP, summary in words | Compatible Effects of l-OHP and Compatible Agent, Time Lag Administration, Addition Administration of Compatible Agent day 2 [1] | Compatible Effects of l-OHP and Compatible Agent, Time Lag Administration, Addition Administration of Compatible Agent day 3 [1] | Compatible Effects of l-OHP and Compatible Agent, Time Lag Administration, Addition Administration of Compatible Agent day 4 [1] | Compatible Effects of l-OHP and Compatible Agent, Simultaneous Administration [2] | Compatible Effects of l-OHP and Compatible Agent, Time Lag Administration, Addition Administration of l-OHP day 2 [3] | Compatible Effects of l-OHP and Compatible Agent, Time Lag Administration, Addition Administration of l-OHP day 3 [3] | Compatible Effects of l-OHP and Compatible Agent, Time Lag Administration, Addition Administration of l-OHP day 4 [3] | Compatible Effects of l-OHP and Compatible Agent, Time Lag Administration, Addition Administration of Compatible Agent day 2 [4] | Compatible Effects of l-OHP and Compatible Agent, Time Lag Administration, Addition Administration of Compatible Agent day 3 [4] | Compatible Effects of l-OHP and Compatible Agent, Time Lag Administration, Addition Administration of Compatible Agent day 4 [4] | Compatible Effects of l-OHP and Compatible Agent, Simultaneous Administration [5] | Compatible Effects of l-OHP and Compatible Agent, Time Lag Administration, Addition Administration of l-OHP day 2 [6] | Compatible Effects of l-OHP and Compatible Agent, Time Lag Administration, Addition Administration of l-OHP day 3 [6] | Compatible Effects of l-OHP and Compatible Agent, Time Lag Administration, Addition Administration of l-OHP day 4 [6] | compatible administration effect with l-OHP, summary in words (listed as 6-FU) | effect as % of the expected value (compatible efficiency) (simultaneous administration with l-OHP, which dosage gives which value is not given) |
| --- | --- | --- | --- | --- | --- | --- | --- | --- | --- | --- | --- | --- | --- | --- | --- | --- | --- |
| COc1cc([C@@H]2c3cc4c(cc3[C@@H](O[C@@H]3O[C@@H]5CO[C@@H](C)O[C@H]5[C@H](O)[C@H]3O)[C@H]3COC(=O)[C@H]23)OCO4)cc(OC)c1O [etoposide] | the additive effect or the synergistic effect regardless of the administration method and the dosage in almost all the cases; also recorded: synergistic effects can be obtained in almost all the combinations when the l-OHP is added later | ◯ (◯: Additive Effect) | ◯ (◯: Additive Effect) | Δ (Δ: Below Additive Effect) | ◯ (◯: Additive Effect) | • (•: Synergistic Effect) | • (•: Synergistic Effect) | • (•: Synergistic Effect) | ◯ (◯: Additive Effect) | • (•: Synergistic Effect) | ◯ (◯: Additive Effect) | ◯ (◯: Additive Effect) | • (•: Synergistic Effect) | • (•: Synergistic Effect) | • (•: Synergistic Effect) | – | – |
| O=c1[nH]cc(F)c(=O)[nH]1 [5-FU, 5-fluorouracil] | twice an expected value; also recorded: synergistic effects can be obtained in almost all the administration conditions | • (•: Synergistic Effect) | • (•: Synergistic Effect) | • (•: Synergistic Effect) | • (•: Synergistic Effect) | • (•: Synergistic Effect) | • (•: Synergistic Effect) | • (•: Synergistic Effect) | ◯ (◯: Additive Effect) | • (•: Synergistic Effect) | • (•: Synergistic Effect) | • (•: Synergistic Effect) | • (•: Synergistic Effect) | ◯ (◯: Additive Effect) | • (•: Synergistic Effect) | the additive effect or the synergistic effect regardless of the administration method and the dosage in almost all the cases | 180% and 150% |
| CO[C@@]12[C@H](COC(N)=O)C3=C(C(=O)C(C)=C(N)C3=O)N1C[C@@H]1N[C@@H]12 [mitomycine, mitomycin] | the additive effect or the synergistic effect regardless of the administration method and the dosage in almost all the cases; also recorded: synergistic effects can be obtained in most combinations when the l-OHP is administrated before to the mitomycin | ◯ (◯: Additive Effect) | • (•: Synergistic Effect) | • (•: Synergistic Effect) | ◯ (◯: Additive Effect) | ◯ (◯: Additive Effect) | Δ (Δ: Below Additive Effect) | Δ (Δ: Below Additive Effect) | ◯ (◯: Additive Effect) | • (•: Synergistic Effect) | • (•: Synergistic Effect) | ◯ (◯: Additive Effect) | ◯ (◯: Additive Effect) | Δ (Δ: Below Additive Effect) | ◯ (◯: Additive Effect) | – | – |
